From paper PMC8113725, “Structure–activity relationship of ipglycermide binding to phosphoglycerate mutases” (The Journal of Biological Chemistry, 2021)
Bridge positions count the residues as written; N and C are the ends. Square brackets hold non-standard residues; d marks the D form. Peptide text beside a SMILES is read from it.

Target: D. immitis iPGM (Dirofilaria immitis, UniProt F4ZE01)
Assay: biochemical
Conditions: Di iPGM Ave IC50 (M)

Row | SMILES | IC50 [M]
1 | CC(C)C[C@H](NC(=O)[C@H](Cc1ccc(O)cc1)NC(=O)[C@@H]1CSCC(=O)N[C@H](Cc2ccc(F)cc2)C(=O)N[C@@H](CC(=O)O)C(=O)N[C@@H](Cc2ccc(O)cc2)C(=O)N2CCC[C@H]2C(=O)NCC(=O)N[C@@H](CC(=O)O)C(=O)N[C@@H](Cc2ccc(O)cc2)C(=O)N1)C(=O)N[C@@H](Cc1ccc(O)cc1)C(N)=O [Ce-2d Y1D(4F)F] | 3.7e-08
2 | CC(C)C[C@H](NC(=O)[C@H](Cc1ccc(O)cc1)NC(=O)[C@@H]1CSCC(=O)N[C@H](Cc2ccc(O)cc2)C(=O)N[C@@H](CC(=O)O)C(=O)N[C@@H](Cc2ccc(O)cc2)C(=O)N2CCC[C@H]2C(=O)NCC(=O)N[C@@H](CC(=O)O)C(=O)N[C@@H](Cc2ccc(O)cc2)C(=O)N1)C(=O)N[C@@H](Cc1ccccc1)C(N)=O [Ce-2d Y11F] | 9.89e-08
3 | CC(C)C[C@H](NC(=O)[C@H](Cc1ccc(O)cc1)NC(=O)[C@@H]1CSCC(=O)N[C@H](Cc2ccc(O)cc2)C(=O)N[C@@H](CC(=O)O)C(=O)N[C@@H](Cc2ccc(O)cc2)C(=O)N2CCC[C@H]2C(=O)NCC(=O)N[C@@H](CC(=O)O)C(=O)N[C@@H](Cc2ccc(O)cc2)C(=O)N1)C(=O)N[C@@H](Cc1ccc(O)cc1)C(=O)O [Ce-2d Y11COOH] | 7.75e-07
4 | CC(C)C[C@H](NC(=O)[C@H](Cc1ccc(O)cc1)NC(=O)[C@@H]1CSCC(=O)N[C@H](Cc2ccc(O)cc2)C(=O)N[C@@H](CC(=O)O)C(=O)N[C@@H](Cc2ccc(O)cc2)C(=O)N2CCC[C@H]2C(=O)NCC(=O)N[C@@H](CC(=O)O)C(=O)N[C@@H](Cc2ccc(O)cc2)C(=O)N1)C(=O)N[C@@H](Cc1ccc(F)cc1)C(N)=O [Ce-2d Y11(4F)F] | 7.11e-08
5 | CC(C)C[C@H](NC(=O)[C@H](CC(C)C)NC(=O)[C@H](Cc1ccc(O)cc1)NC(=O)[C@@H]1CSCC(=O)N[C@H](Cc2ccc(O)cc2)C(=O)N[C@@H](CC(=O)O)C(=O)N[C@@H](Cc2ccc(O)cc2)C(=O)N2CCC[C@H]2C(=O)NCC(=O)N[C@@H](CC(=O)O)C(=O)N[C@@H](Cc2ccc(O)cc2)C(=O)N1)C(N)=O [Ce-2d Y11L] | 2.43e-07
6 | COc1ccc(C[C@@H]2NC(=O)[C@H](CC(=O)O)NC(=O)CNC(=O)[C@@H]3CCCN3C(=O)[C@H](Cc3ccc(O)cc3)NC(=O)[C@H](CC(=O)O)NC(=O)[C@@H](Cc3ccc(O)cc3)NC(=O)CSC[C@@H](C(=O)N[C@@H](Cc3ccc(O)cc3)C(=O)N[C@@H](CC(C)C)C(=O)N[C@@H](Cc3ccc(O)cc3)C(N)=O)NC2=O)cc1 [Ce-2d Y7(4OMe)F] | 6.79e-08
7 | CC(C)C[C@H](NC(=O)[C@H](Cc1ccc(O)cc1)NC(=O)[C@@H]1CSCC(=O)N[C@H](Cc2ccc(O)cc2)C(=O)N[C@@H](CC(=O)O)C(=O)N[C@@H](Cc2ccccc2)C(=O)N2CCC[C@H]2C(=O)NCC(=O)N[C@@H](CC(=O)O)C(=O)N[C@@H](Cc2ccc(O)cc2)C(=O)N1)C(=O)N[C@@H](Cc1ccc(O)cc1)C(N)=O [Ce-2d Y3F] | 3.2e-06
8 | CC(C)C[C@H](NC(=O)[C@H](Cc1ccc(O)cc1)NC(=O)[C@@H]1CSCC(=O)N[C@H](Cc2ccc(O)cc2)C(=O)N[C@@H](C(C)C)C(=O)N[C@@H](Cc2ccc(O)cc2)C(=O)N2CCC[C@H]2C(=O)NCC(=O)N[C@@H](CC(=O)O)C(=O)N[C@@H](Cc2ccc(O)cc2)C(=O)N1)C(=O)N[C@@H](Cc1ccc(O)cc1)C(N)=O [Ce-2d D2V] | 5.77e-07
9 | CC(C)C[C@H](NC(=O)[C@H](Cc1ccc(O)cc1)NC(=O)[C@@H]1CSCC(=O)N[C@H](Cc2ccc(O)cc2)C(=O)N[C@@H](CC(=O)O)C(=O)N[C@@H](Cc2ccc(F)cc2)C(=O)N2CCC[C@H]2C(=O)NCC(=O)N[C@@H](CC(=O)O)C(=O)N[C@@H](Cc2ccc(O)cc2)C(=O)N1)C(=O)N[C@@H](Cc1ccc(O)cc1)C(N)=O [Ce-2d Y3(4F)F] | 1.48e-07
10 | CC(C)C[C@H](NC(=O)[C@H](Cc1ccc(O)cc1)NC(=O)[C@@H]1CSCC(=O)N[C@@H](Cc2ccc(F)cc2)C(=O)N[C@@H](CC(=O)O)C(=O)N[C@@H](Cc2ccc(O)cc2)C(=O)N2CCC[C@H]2C(=O)NCC(=O)N[C@@H](CC(=O)O)C(=O)N[C@@H](Cc2ccc(O)cc2)C(=O)N1)C(=O)N[C@@H](Cc1ccc(O)cc1)C(N)=O [Ce-2d Y1(4F)F] | 5.35e-08
11 | CC(C)[C@H](NC(=O)[C@H](Cc1ccc(O)cc1)NC(=O)[C@@H]1CSCC(=O)N[C@H](Cc2ccc(O)cc2)C(=O)N[C@@H](CC(=O)O)C(=O)N[C@@H](Cc2ccc(O)cc2)C(=O)N2CCC[C@H]2C(=O)NCC(=O)N[C@@H](CC(=O)O)C(=O)N[C@@H](Cc2ccc(O)cc2)C(=O)N1)C(=O)N[C@@H](Cc1ccc(O)cc1)C(N)=O [Ce-2d L10V] | 1.93e-06
12 | CC(C)C[C@H](NC(=O)[C@H](Cc1ccc(O)cc1)NC(=O)[C@@H]1CSCC(=O)N[C@H](Cc2ccc(O)cc2)C(=O)N[C@@H](CC(=O)O)C(=O)N[C@@H](Cc2ccccc2)C(=O)N2CCC[C@H]2C(=O)NCC(=O)N[C@@H](CC(=O)O)C(=O)N[C@@H](Cc2ccc(O)cc2)C(=O)N1)C(=O)N[C@@H](Cc1ccc(O)cc1)C(=O)NCC(=O)N[C@H](C(=O)N[C@@H](CS)C(N)=O)[C@@H](C)O [Ce-2 Y3F] ({CH2CO}-[dY]DFPGDYCYLYGTC-NH2; thioether N-8) | 2.42e-09
13 | CC(C)C[C@H](NC(=O)[C@H](Cc1ccc(F)cc1)NC(=O)[C@@H]1CSCC(=O)N[C@H](Cc2ccc(O)cc2)C(=O)N[C@@H](CC(=O)O)C(=O)N[C@@H](Cc2ccc(O)cc2)C(=O)N2CCC[C@H]2C(=O)NCC(=O)N[C@@H](CC(=O)O)C(=O)N[C@@H](Cc2ccc(O)cc2)C(=O)N1)C(=O)N[C@@H](Cc1ccc(O)cc1)C(N)=O [Ce-2d Y9(4F)F] | 3.33e-07
14 | CC(C)C[C@H](NC(=O)[C@H](Cc1ccc(O)cc1)NC(=O)[C@@H]1CSCC(=O)N[C@H](Cc2ccc(O)cc2)C(=O)N[C@@H](CC(=O)O)C(=O)N[C@@H](Cc2c[nH]c3ccccc23)C(=O)N2CCC[C@H]2C(=O)NCC(=O)N[C@@H](CC(=O)O)C(=O)N[C@@H](Cc2ccc(O)cc2)C(=O)N1)C(=O)N[C@@H](Cc1ccc(O)cc1)C(N)=O [Ce-2d Y3W] | 7.09e-06
15 | CC(C)C[C@H](NC(=O)[C@H](Cc1ccc(O)cc1)NC(=O)[C@@H]1CSCC(=O)N[C@H](Cc2ccc(O)cc2)C(=O)N[C@@H](CC(=O)O)C(=O)N[C@@H](Cc2ccc(O)cc2)C(=O)N2CCC[C@H]2C(=O)NCC(=O)N[C@@H](CC(N)=O)C(=O)N[C@@H](Cc2ccc(O)cc2)C(=O)N1)C(=O)N[C@@H](Cc1ccc(O)cc1)C(N)=O [Ce-2d D6N] | 6.18e-06
16 | COc1ccc(C[C@H](NC(=O)[C@@H]2CSCC(=O)N[C@H](Cc3ccc(O)cc3)C(=O)N[C@@H](CC(=O)O)C(=O)N[C@@H](Cc3ccc(O)cc3)C(=O)N3CCC[C@H]3C(=O)NCC(=O)N[C@@H](CC(=O)O)C(=O)N[C@@H](Cc3ccc(O)cc3)C(=O)N2)C(=O)N[C@@H](CC(C)C)C(=O)N[C@@H](Cc2ccc(O)cc2)C(N)=O)cc1 [Ce-2d Y9(4OMe)F] | 2.04e-06
17 | CC(C)C[C@H](NC(=O)[C@H](Cc1ccc(O)cc1)NC(=O)[C@@H]1CSCC(=O)N[C@H](Cc2ccc(O)cc2)C(=O)N[C@@H](CC(=O)O)C(=O)N[C@@H](Cc2ccc(O)cc2)C(=O)N[C@@H](C)C(=O)NCC(=O)N[C@@H](CC(=O)O)C(=O)N[C@@H](Cc2ccc(O)cc2)C(=O)N1)C(=O)N[C@@H](Cc1ccc(O)cc1)C(N)=O [Ce-2d P4A] | 7.94e-08
18 | CC(C)C[C@H](NC(=O)[C@H](Cc1ccc(O)cc1)NC(=O)[C@@H]1CSCC(=O)N[C@H](Cc2ccc(O)cc2)C(=O)NCC(=O)N[C@@H](Cc2ccc(O)cc2)C(=O)N2CCC[C@H]2C(=O)NCC(=O)N[C@@H](CC(=O)O)C(=O)N[C@@H](Cc2ccc(O)cc2)C(=O)N1)C(=O)N[C@@H](Cc1ccc(O)cc1)C(N)=O [Ce-2d D2G] | 1.32e-06
